Laboratory results reported in patent US7169750B2, “Methods to mobilize progenitor/stem cells” (Anormed, Inc., priority 2001, dated 2007).
Like-named read-outs stand apart in the source and are kept apart here.

What was measured:
[1] = system: CFU-GM; details: 80 μg/kg s.c.
Method: (§1) Five healthy human volunteers having initial white blood cell counts of 4,500–7,500 cells/mm^3 were used in the study. […] Blood samples were obtained via catheter prior to the dose, and at various times up to 24 hours after dosing.
(§2) All progenitor cell results are based on the scoring of 3 culture plates per assay per point.
(§3) For the progenitor cell numbers and cycling status, the numbers of CFU-GM, BFU-E and CFU-GEMM in methylcellulose cultures by stimulation of the cells with 1 Unit (U)/ml recombinant human (rhu) erythropoietin, 100 U/ml rhu granulocyte-macrophage colony stimulating factor (GM-CSF), 100 U/ml rhu interleukin-3 (IL-3) and 50 ng/ml rhu steel factor (SLF=stem cell factor (SCF)). The CFU-GM were also evaluated in agar cultures stimulated with 100 U/ml rhu GM-CSF and 50 ng/ml rhu SLF. For both types of assays, colonies were scored after 14 day incubation in a humidified atmosphere with 5% CO2 and lowered (5%) O2 tension. Cell cycling status of progenitors was measured using a high specific activity tritiated thymidine kill technique as previously described (Broxmeyer, H. E., et al., Exp. Hematol. (1989) 17:455–459).

[2] = system: granulocyte macrophage (CFU-GM), erythroid (BFU-E), and multipotential (CFU-GEMM) progenitor cells
Method: as §1, §2, §3

[3] = target: CXCR4 chemokine receptor (Homo sapiens, UniProt P61073); details: Gerlach, et al., J.Biol. Chem. (2001); cited from earlier work
[4] = system: circulating CD34+ progenitor/stem cells; details: single dose of 80 μg/kg; 6 hour time point; Phase 1 study (Liles, et al.); cited from earlier work
[5] = system: rats with ligated left coronary artery; details: administered within hours after induction of cardiac ischemia, with or without rhG-CSF
Method: Adult rats are anesthetized and a thoracotomy is performed. The descending branch of the left coronary artery is ligated and not reperfused. […] Control rats are not treated with the reagents. The animals are monitored at one-week intervals by echocardiography and MRI. The experiment is terminated at 2, 6 to 12 weeks post-surgery. On the day of sacrifice, the hemodynamic functions are analyzed for left ventricle-end diastolic pressure, left ventricle-developed pressure and the rate of rise and fall of left ventricle pressure. The heart is then arrested in diastole and perfuised via the abdominal aorta to flush residual blood from the vascular network of the myocardium. This is followed by perfusion of the heart with 10% formalin. Several slices are made through the fixed heart and these are embedded in paraffin and sections. The sections are stained and analyzed by light microscopy to determine the size of the infarct in the treated and control animals. Tissue sections from hearts taken at 2 weeks after surgery are stained with antibodies specific for immature, developing myocyte and blood vessel proteins and analyzed by confocal microscopy. The immunohistochemical analysis involves the identification of transcription factors and surface markers expressed in early stages of myocyte development.

[6] = system: WBC; details: single dose of 80 μg/kg; Phase 1 study (Liles, et al.); cited from earlier work
[7] = system: progenitor cells; details: AMD3100 5 mg/Kg s.c. + MIP-1α 5 μg I.V., 11 hours after rhu G-CSF or saline, 1 hour prior to assessing the blood
Method: Groups of mice were randomized to receive control diluent (saline) or G-CSF at a dose of 2.5 μg per mouse, twice a day, for two days via s.c. injection. […] One hour later, the mice were sacrificed and the number of progenitor cells per mL of blood were measured.

[8] = system: nucleated cells; details: T = 3 h; average of 5 donors; 80 μg/kg s.c.
[9] = system: progenitors in DNA synthesis (S) phase; details: prior to and 1, 3, 6, 9 and 24 hours after injection
Method: For the progenitor cell numbers and cycling status, the numbers of CFU-GM, BFU-E and CFU-GEMM in methylcellulose cultures by stimulation of the cells with 1 Unit (U)/ml recombinant human (rhu) erythropoietin, 100 U/ml rhu granulocyte-macrophage colony stimulating factor (GM-CSF), 100 U/ml rhu interleukin-3 (IL-3) and 50 ng/ml rhu steel factor (SLF=stem cell factor (SCF)). […] For both types of assays, colonies were scored after 14 day incubation in a humidified atmosphere with 5% CO2 and lowered (5%) O2 tension. Cell cycling status of progenitors was measured using a high specific activity tritiated thymidine kill technique as previously described (Broxmeyer, H. E., et al., Exp. Hematol. (1989) 17:455–459).

Chain of CXCR4 chemokine receptor (P61073 whole entry): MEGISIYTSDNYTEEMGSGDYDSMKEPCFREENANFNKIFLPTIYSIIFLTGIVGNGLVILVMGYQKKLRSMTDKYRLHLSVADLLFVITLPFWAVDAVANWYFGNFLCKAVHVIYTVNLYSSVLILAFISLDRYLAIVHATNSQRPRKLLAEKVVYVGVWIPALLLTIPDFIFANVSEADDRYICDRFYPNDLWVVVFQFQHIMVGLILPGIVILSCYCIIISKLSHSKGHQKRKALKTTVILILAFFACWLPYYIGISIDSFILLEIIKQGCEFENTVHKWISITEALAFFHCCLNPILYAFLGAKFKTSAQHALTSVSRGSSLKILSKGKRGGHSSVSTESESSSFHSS

c1cc(CN2CCCNCCNCCCNCC2)ccc1CN1CCCNCCNCCCNCC1 [AMD3100, 1,1′-[1,4-phenylene-bis(methylene)]-bis-1,4,8,11-tetraazacyclotetradecane]
CFU-GM agar culture fold change from T=0 ([1]; P4, T = 24 h): 1.30 fold
CFU-GM agar culture fold change from T=0 ([1]; P5, T = 3 h): 6.40 fold
CFU-GM agar culture fold change from T=0 ([1]; P5, T = 24 h): 2.20 fold
CFU-GEMM methylcellulose culture fold change from T=0 ([2]; P1, T = 1 h, 80 μg/kg s.c.): 2.07 fold
CFU-GEMM methylcellulose culture fold change from T=0 ([2]; P1, T = 24 h, 80 μg/kg s.c.): 1.12 fold
CFU-GM methylcellulose culture fold change from T=0 ([2]; P1, T = 24 h, 80 μg/kg s.c.): 1.10 fold
BFU-E methylcellulose culture fold change from T=0 ([2]; P2, T = 1 h, 80 μg/kg s.c.): 1.48 fold
BFU-E methylcellulose culture fold change from T=0 ([2]; P3, T = 1 h, 80 μg/kg s.c.): 2.30 fold
CFU-GM methylcellulose culture fold change from T=0 ([2]; P3, T = 1 h, 80 μg/kg s.c.): 3.70 fold
CFU-GEMM methylcellulose culture fold change from T=0 ([2]; P3, T = 9 h, 80 μg/kg s.c.): 2.47 fold
CFU-GEMM methylcellulose culture fold change from T=0 ([2]; P3, T = 24 h, 80 μg/kg s.c.): 0.69 fold
BFU-E methylcellulose culture fold change from T=0 ([2]; P4, T = 3 h, 80 μg/kg s.c.): 2.60 fold
CFU-GEMM methylcellulose culture fold change from T=0 ([2]; P4, T = 6 h, 80 μg/kg s.c.): 9.10 fold
BFU-E methylcellulose culture fold change from T=0 ([2]; P4, T = 24 h, 80 μg/kg s.c.): 0.79 fold
CFU-GEMM methylcellulose culture fold change from T=0 ([2]; P4, T = 24 h, 80 μg/kg s.c.): 0.98 fold
CFU-GEMM methylcellulose culture fold change from T=0 ([2]; P5, T = 3 h, 80 μg/kg s.c.): 4.43 fold
CFU-GM methylcellulose culture fold change from T=0 ([2]; P5, T = 3 h, 80 μg/kg s.c.): 8.40 fold
BFU-E methylcellulose culture % CHG ([2]; T = 1 h, mean of five donors, 80 μg/kg s.c.): 98.9%
time of maximal fold increases in circulating levels of progenitor cells ([2]; after injection, all five donors): 6 h
action at the CXCR4 chemokine receptor [3]: antagonist
peak increase in circulating CD34+ progenitor/stem cells [4]: 6 fold
cardiac remodeling and scar formation [5]: block to cardiac remodeling and scar formation
mobilization of bone marrow stem cells [5]: mobilizes bone marrow stem cells rapidly
regeneration of myocardium [5]: regeneration of the dead myocardium
WBC count [6]: 17,000 / μl
mobilization of progenitor cells in combination with mu MIP-1α [7]: additive to greater than additive
PBL-LD nucleated cellularity Fold Change Compared to TIME = 0, MEAN [8]: 2.86 fold
PBL-US nucleated cellularity Fold Change Compared to TIME = 0, MEAN [8]: 2.80 fold
cycling state of progenitors [9]: slow or non-cycling state
